{
  "source": "patent US20210024482A1",
  "about": "“Novel Group of STAT3 Pathway Inhibitors and Cancer Stem Cell Pathway Inhibitors” (Sumitomo Dainippon Pharma Oncology, Inc., priority 2007, published 2021)",
  "key": {"DU145 cells": {"test_system": "DU145 cells", "assay": "Annexin V flow cytometry in DU145 cells", "type": "cell-based", "conditions": "5 hours post-treatment, FIG. 11", "protocol": "Cells treated with or without compound were harvested at 5 hours post treatment for Annexin-V staining. Collected cells were washed with PBS and resuspended in Annexin-V-FITC containing buffer and stained according to manufactures directions (Roche). Annexin-V positive cells were determined by Flow cytometry.\nAdditionally, DU145 cells were first treated with DMSO or the indicated concentrations of compound 401, then stained with Annexin V, and followed by Flow cytometry analysis 5 hours post-treatment."}, "Stat3": {"test_system": "Stat3", "assay": "Stat3 DNA binding assay (EMSA) with HeLa nuclear extracts", "type": "biochemical", "conditions": "HeLa nuclear extract, FIG. 7A/7B", "protocol": "Electrophoretic mobility shift assay (EMSA) was performed as described by the manufacturer (Li-Cor Biosciences, Lincoln, Nebr.). Briefly, nuclear extracts were made from HeLa cells using the NucBuster Protein Extraction Kit as described by the manufacturer (EMD Biosciences, San Diego, Calif.). 5 μg of nuclear extract was pre-incubated with the indicated dose of indicated compound for 30 minutes prior to a 15-minute incubation with the IR700-labeled consensus Stat3 oligonucleotide. Samples were then electrophoresed on a polyacrylamide gel and directly scanned using the Odyssey infrared imaging system (Li-Cor Biosciences). For the enzyme-linked immunosorbent assay (ELISA), 5 μg of nuclear extract was preincubated with indicated concentration of indicated compound for 30 minutes prior to the addition of biotinylated oligo (5′-Biotin-[…]-3′, SEQ ID NO. 1). Stat3-DNA complexes were then captured on streptavidin coated 96 well plates (Pierce, Rockford, Ill.). Bound complexes were then incubated with Stat3 polyclonal antibody (Santa Cruz Biotechnology, Santa Cruz, Calif.) followed by anti-rabbit HRP conjugated secondary antibody (GE Healthcare, Pittsburgh, Pa.). Bound antibody was then visualized by addition of TMB substrate (Pierce) and absorbance measured at 450 nm,\nNuclear extracts from HeLa cells, which contain constitutively activated Stat3 as detected by phoshporylation at the tyrosine 705 residue, were used to perform Stat3 EMSAs to monitor Stat3 DNA binding activity. Nuclear extracts were incubated with indicated compound prior to incubation with IR700-labeled Stat3 consensus oligonucleotide. Binding of Stat3 to the oligonucleotide was monitored by gel electrophoresis and detection using a LiCor Odyssey infrared scanner."}, "CD44^high CSCs": {"test_system": "CD44^high CSCs", "assay": "Sphere assay with CD44high CSCs", "type": "cell-based", "conditions": "spheres grown 72 hours before challenge, FIGS. 10A and 10B", "protocol": "A reliable method of measuring the self-renewal capacity of cell population if the ability to be cultured as spheres in the absence of serum or attachment. CD44^high FaDu or Hoechst side population cancer stem cells were cultured in ultra low attachment plates in cancer stem cell media (DMEM/F12, B27 Neurobasal supplement, 20 ng/ml EGF, 10 ng/ml FGF, 4 μg/ml insulin, and 0.4% BSA) to allow spheres formation. Typically, sphere formation was evaluated by microscopy after 10-14 days in culture and spheres with >50 cells were scored.\nOne of the hallmarks cancer stem cells is their ability to self-renew. A reliable method of measuring the self-renewal capacity of cell populations is the ability to be cultured as spheres in the absence of serum or attachment. To compare the ability of compound 401 to other targeted and chemotherapeutic agents, FACS-isolated CD44^high CSCs were grown as spheres for 72 hours before being challenged with a panel of therapeutic agents. […] Tarceva, Sutent, and Gleevec were added at approximately three times their reported therapeutic concentrations."}},
  "note": "Entries after “also recorded” stand apart in the source; their conditions may differ.",
  "data": [
    {"molecule": "CC(=O)c1cc2c(o1)C(=O)c1ccccc1C2=O", "note": "[Compound 401, 2-acetylnaphtho[2,3-b]furan-4,9-dione]", "values": [
      {"measurement": "Annexin V staining", "setting": "DU145 cells", "value": "dose-dependent increase in the Annexin V staining"},
      {"measurement": "inhibition of Stat3 DNA binding activity", "setting": "Stat3", "value": "Dose dependent inhibition of Stat3 DNA binding; also recorded: can inhibit Stat3's DNA binding activity"},
      {"measurement": "prevention of sphere proliferation", "setting": "CD44^high CSCs", "value": "effective at preventing sphere proliferation"}
    ]}
  ]
}
